The subject of series [1] is MCF-7 breast cancer cells. Also noted: method as in Gilbert et al., 2020. The note with it: MCF-7, Breast (ER); MTT, 72 h; ref Gilbert et al., 2020; cited from earlier work.
Series [2] concerns T47D breast cancer cells. The arrangement: method as in Gilbert et al., 2020. The note with it: Breast (ER/PR), MTT, 72 h, ref Gilbert et al., 2020; cited from earlier work.
The subject of series [3] is MDA-MB-468 breast cancer cells. Also noted: method as in Gilbert et al., 2020. Particulars: MDA-MB-468, Breast (TN); MTT, 72 h; ref Gilbert et al., 2020; cited from earlier work.
For series [4], the system named is A431 (vulva/skin, ER+) cells. The arrangement: method as in Gilbert et al., 2020. The note with it: MTT, 72 h, ref Gilbert et al., 2020; cited from earlier work.
Series [5] relates to MDA-MB-231 breast cancer cells. The arrangement: method as in Gilbert et al., 2020. The note with it: MDA-MB-231, Breast (TN); MTT, 72 h; ref Gilbert et al., 2020; cited from earlier work.
The test system of series [6] is MDA-MB-468 breast cancer cells. In words: MTT growth inhibition with co-administered CYP1 (αNF) or SULT1A1 (quercetin) inhibitor. The format is cell-based, human. Particulars: for fold reduction of growth inhibition (GI50 shift): MDA-MB-468. Here is the method: This analysis confirms that both CYP1 and SULT1A1, activity is needed to induce the growth inhibitory effect of the BBQ analogue.
FIGURE 5 CYP1 and SULT1A1 inhibition ameliorates the effect of 5. Growth inhibition (72 h, MTT assay) of 5 in the presence of the (A) CYP1 family inhibitor, α-naphthoflavone (αNF, 10 μM) and (B) SULT1A1 inhibitor, quercetin (5 μM), in MDA-MB-468 breast cancer cells. […] The effect of αNF and quercetin at the single concentration of 10µM and 5 µM respectively is shown in red as a single value.
Cells in logarithmic growth were transferred to 96-well plates. Cytotoxicity was determined by plating cells in duplicate in 100 μL medium at a density of 2,500–4,000 cells/well in 96 well plates. On day 0, (24 h after plating) when the cells were in logarithmic growth 100 μL medium with or without the test agent was added to each well. After 72 h drug exposure growth inhibitory effects were evaluated using the MTT (3-[4,5-dimethylthiazol-2-yl]-2,5-diphenyltetrazolium bromide) assay with absorbance read at 540 nm. An eight-point dose response curve was produced, using MS Excel software. From these dose-response curves, the GI50 value was calculated, representing the drug concentration at which cell growth is 50% inhibited based on the difference between the optical density values on day 0 and those at the end of drug exposure ([Bradshaw et al., 2008]; [Zhang et al., 2009]). Each data point was conducted in duplicate and the mean ± S.E.M. calculated from four to five replicates (n = 4 or 5), which were performed on separate occasions and separate cell line passages. Where shown, significant test results were determined using T-test analysis at p < 0.01 and p < 0.05 with a two tail distribution.
Supp Figure 1. CYP1 and SULT1A1 inhibition ameliorates the effect of 3 and 5. Growth inhibition (72 h, MTT assay) of 3 and 5 (0.1 µM) in the presence of the CYP1 family inhibitor, α-naphthoflavone (αNF, 10 µM) and SULT1A1 inhibitor, quercetin (qu, 5 µM) in (A) MDA-MB-468 breast cancer cells and (B) MCF10A normal breast cells. […]

Where two headings read alike, the source gives them in different places.

In the case of `Nc1ccccc1N1C(=O)c2cccc3cccc(c23)C1=O` [Compound 2, 2-(2-aminophenyl)-1H-benzo[de]isoquinoline-1,3(2H)-dione], the GI50 in series [1] is 700 ± 120 nM; in series [2], 180 ± 20 nM; in series [3], 100 ± 20 nM; in series [4] it was 250 ± 120 nM; in series [5], 35000 ± 3000 nM.
As to `O=c1c2cccc3cccc(c32)c2nc3ccccc3n12` [Compound 5, 7H-Benzo[de]benzo[4,5]imidazo[2,1-a]isoquinolin-7-one], the GI50 in series [6] (Homo sapiens, compound alone (no inhibitor), MDA-MB-468, MTT, 72 h) stood at 5 nM. The figures for the “fold reduction of growth inhibition (GI50 shift)” value in series [6] (with quercetin 5 μM vs alone) and in series [6] (with α-naphthoflavone 10 μM vs alone) were 4.6 fold and 36 fold, respectively.

The values above are taken from paper PMC11224556, “Next-generation of BBQ analogues that selectively target breast cancer” (Frontiers in Chemistry, 2024).
